The structures appear in SMILES notation.

The values below come from US7871644B2, “Pharmaceutical composition for oral use with improved absorption” (Astellas Pharma Inc., priority 2000, dated 2011).

A short description of data set [1]: Number of insoluble particulate matter after adding magnesium chloride to compound B solution. To be noted: compound B solution with sodium bicarbonate, magnesium chloride solution added, 0-60 minutes, FIG. 7.
Method: Another 2 ml distilled water were added to this solution and the number of insoluble particulate matter (2 μm or larger) was determined 0, 15, 30, and 60 minutes after addition using an insoluble particulate matter gauge (HIAC/ROYCO®, Pacific Scientific).
Two milliliters aqueous 10 mg/ml magnesium chloride.6H2O solution were added to this prepared liquid, and the number of insoluble particulate matter (2 μm or larger) was determined 0, 15, 30 and 60 minutes after addition by the same method as in Experiment 11.
Two milliliters aqueous 10 mg/ml magnesium chloride.6H2O were added to this prepared liquid, and the number of insoluble particulate matter (2 μm or larger) was determined 0, 15, 30 and 60 minutes after addition by the same method as in Experiment 11.
Data set [2] in a line: Oral administration of compound B tablets to beagles 30 minutes after feed. Conditions: fed beagles. The class given is in vivo.
Data set [3] can be described thus: Number of insoluble particulate matter after adding calcium chloride to bisphosphonate solution. To be noted: calcium chloride solution added, 0-60 minutes.
Method: Another 2 ml distilled water were added to this liquid.
Then 2 ml of an aqueous 10 mg/ml calcium chloride.2H2O solution were added to this liquid.
The conditions of data set [4]: J. Pharm. Sci, 86, 1997; cited from earlier work.
The conditions of data set [5]: Int. J. Pharm., 1993; cited from earlier work.

`O=P(O)(O)C(O)(Cc1cnc2ccccn12)P(=O)(O)O` [compound B]: the “number of insoluble particulate matter (2 μm or larger)” value in data set [1] is listed as “increase in the number of insoluble particulate matter”. Further, in data set [2], the “Cmax and AUC when taken with food” value was “low Cmax and AUC”. For the same compound, the “number of insoluble particulate matter (10 μm or larger)” value in data set [3] (compound B solution, FIG. 2) is recorded as “increase in the number of insoluble particulate matter”.
Turning to `C[C@]12CC[C@H]3[C@@H](CCC4=CC(=O)CC[C@@]43C)[C@@H]1CC[C@@H]2O` [testosterone], the “reduction of the diffusion coefficient by the mucous layer” value in data set [4] is reported as 50%. The “share of the barrier to absorption accounted for by the mucous layer” value in data set [5] is reported as 78%.
Turning to `O=P(O)(O)C(NC1CCCCCC1)P(=O)(O)O` [compound C, [(cycloheptylamino)-methylene]bis-phosphonate], in data set [3] (compound C solution with sodium bicarbonate, FIG. 4), the “number of insoluble particulate matter (10 μm or larger)” value is “increase in the number of insoluble particulate matter”.
On to `CC(O)(P(=O)(O)O)P(=O)(O)O` [compound D, (1-hydroxyethylidene)-1,1-bisphosphonate], for which, in data set [3] (compound D solution with sodium bicarbonate, FIG. 5), the “number of insoluble particulate matter (2 μm or larger)” value is reported as “increase in the number of insoluble particulate matter”.
